Read-outs that look alike come from different tables or passages of the source.
Tested on: Escherichia coli ATCC 25922
Assay: 50% growth inhibitory concentration (IC50) determination, Iso-Sensitest broth dilution
Assay type: cell-based
Settings: strain Escherichia coli ATCC 25922, 10-point broth dilution, optical density at 600 nm over 16 h, read-out: Escherichia coli growth inhibition IC50
Summary of the method: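 10-point twofold Iso-Sensitest broth dilution (e.g. 50 to 0.097 μM final) with DMSO stocks, incubated at 35±2° C. Growth followed by OD 600 nm every 20 min over 16 h; IC50 derived from growth inhibition during logarithmic phase.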

[1] = Escherichia coli, ATCC25922, 16 h

SMILES	IC50 [1] [µM]	IC50 [µM]
O=C1COc2ccc(N3CC(CCNCC4(O)Cc5cccc(Cl)c5C4)OC3=O)nc2N1 (stereo not drawn) [Example 232, 6-[5-[2-[(4-Chloro-2-hydroxy-1,3-dihydroinden-2-yl)methylamino]ethyl]-2-oxo-1,3-oxazolidin-3-yl]-4H-pyrido[3,2-b][1,4]oxazin-3-one; formic acid]	0.495	
O=C1COc2ccc(N3CC(CCNCC4Cc5cccc(F)c5C4)OC3=O)nc2N1 (stereo not drawn) [Example 91, 6-[5-[2-[(4-fluoro-2,3-dihydro-1H-inden-2-yl)methylamino]ethyl]-2-oxo-1,3-oxazolidin-3-yl]-4H-pyrido[3,2-b][1,4]oxazin-3-one]	< 0.0977	
CNC(=O)COc1cc(F)c2c(c1F)CC(CNCCC1CN(c3cnc4c(n3)NC(=O)CO4)C(=O)O1)C2 (stereo not drawn) [Example 393, 2-[[4,7-difluoro-2-[[2-[2-oxo-3-(3-oxo-4H-pyrazino[2,3-b][1,4]oxazin-6-yl)-1,3-oxazolidin-5-yl]ethylamino]methyl]-2,3-dihydro-1H-inden-5-yl]oxy]-N-methylacetamide]	< 0.0977	
Cc1ncc(F)c2c1CC(NCCCC1CN(c3cnc4c(n3)NC(=O)CO4)C(=O)O1)C2 (stereo not drawn) [Example 79, 6-[5-[3-[(4-fluoro-1-methyl-6,7-dihydro-5H-cyclopenta[c]pyridin-6-yl)amino]propyl]-2-oxo-1,3-oxazolidin-3-yl]-4H-pyrazino[2,3-b][1,4]oxazin-3-one]	< 0.0977	
Cc1nc(OCC2(N)CC2)c(C#N)c2c1CC(CNCCC1CN(c3ccc4c(n3)NC(=O)CO4)C(=O)O1)C2 (stereo not drawn) [Example 214, 3-[(1-aminocyclopropyl)methoxy]-1-methyl-6-[[2-[2-oxo-3-(3-oxo-4H-pyrido[3,2-b][1,4]oxazin-6-yl)-1,3-oxazolidin-5-yl]ethylamino]methyl]-6,7-dihydro-5H-cyclopenta[c]pyridine-4-carbonitrile]	< 0.0977	
Cc1ncc(F)c2c1CC(CN1CCC3(CC1)CN(c1ccc4c(n1)NC(=O)CO4)C(=O)O3)C2 (stereo not drawn) [Example 72, 6-[8-[(4-fluoro-1-methyl-6,7-dihydro-5H-cyclopenta[c]pyridin-6-yl)methyl]-2-oxo-1-oxa-3,8-diazaspiro[4.5]decan-3-yl]-4H-pyrido[3,2-b][1,4]oxazin-3-one]	0.0697	
CC(C)(N)COc1cc(F)c2c(c1)CC(CN1CCC3(CC1)CN(c1cnc4c(n1)NC(=O)CO4)C(=O)O3)C2 (single isomer, unassigned; enantiomer a) [Example 377, 6-[8-[[6-(2-Amino-2-methylpropoxy)-4-fluoro-2,3-dihydro-1H-inden-2-yl]methyl]-2-oxo-1-oxa-3,8-diazaspiro[4.5]decan-3-yl]-4H-pyrazino[2,3-b][1,4]oxazin-3-one; formic acid, Enantiomer A]	< 0.0977	
CCOC(=O)c1cn(CC)c2c3c(c(F)cc2c1=O)CC(CNCCC1CN(c2ccc4c(n2)NC(=O)CO4)C(=O)O1)C3 (stereo not drawn) [Example 225, ethyl 1-ethyl-6-fluoro-4-oxo-8-[[2-[2-oxo-3-(3-oxo-4H-pyrido[3,2-b][1,4]oxazin-6-yl)-1,3-oxazolidin-5-yl]ethylamino]methyl]-8,9-dihydro-7H-cyclopenta[h]quinoline-3-carboxylate]	0.547	
N#Cc1cccc2c1CC(NC1CCC3(CC1)CN(c1ccc4c(n1)NC(=O)CO4)C(=O)O3)C2 (single isomer, unassigned; isomer b) [Example 40, 2-[[2-oxo-3-(3-oxo-4H-pyrido[3,2-b][1,4]oxazin-6-yl)-1-oxa-3-azaspiro[4.5]decan-8-yl]amino]-2,3-dihydro-1H-indene-4-carbonitrile. Isomer B; formic acid]		0.153
NC1(COc2cc(F)c3c(c2F)CC(CN2CCC4(CC2)CN(c2cnc5c(n2)NC(=O)CO5)C(=O)O4)C3)CC1 (stereo not drawn) [Example 410, 6-[8-[[5-[(1-aminocyclopropyl)methoxy]-4,7-difluoro-2,3-dihydro-1H-inden-2-yl]methyl]-2-oxo-1-oxa-3,8-diazaspiro[4.5]decan-3-yl]-4H-pyrazino[2,3-b][1,4]oxazin-3-one; formic acid]	< 0.0977	
O=C1COc2ccc(N3CC(CCCNC4Cc5cccc(Cl)c5C4)OC3=O)nc2N1 (stereo not drawn) [Example 4, 6-[5-[3-[(4-chloro-2,3-dihydro-1H-inden-2-yl)amino]propyl]-2-oxo-1,3-oxazolidin-3-yl]-4H-pyrido[3,2-b][1,4]oxazin-3-one]	< 0.0977	
Cc1ncc(F)c2c1CC(CNCCC1CC(=O)N(c3ccc4c(n3)NC(=O)CO4)C1)C2 (stereo not drawn) [Example 417, 6-[4-[2-[(4-Fluoro-1-methyl-6,7-dihydro-5H-cyclopenta[c]pyridin-6-yl)methylamino]ethyl]-2-oxopyrrolidin-1-yl]-4H-pyrido[3,2-b][1,4]oxazin-3-one]	< 0.0977	
CC(N)COc1cc(F)c2c(c1)CC(CNCCC1CN(c3ccc4c(n3)NC(=O)CO4)C(=O)O1)C2 (stereo not drawn) [Example 154, 6-[5-[2-[[6-(2-aminopropoxy)-4-fluoro-2,3-dihydro-1H-inden-2-yl]methylamino]ethyl]-2-oxo-1,3-oxazolidin-3-yl]-4H-pyrido[3,2-b][1,4]oxazin-3-one]	< 0.0977	
CC(C)(N)COc1cc(C#N)c2c(c1)CC(CN1CCC3(CC1)CN(c1cnc4c(n1)NC(=O)CO4)C(=O)O3)C2 (stereo not drawn) [Example 407, 6-(2-amino-2-methylpropoxy)-2-[[2-oxo-3-(3-oxo-4H-pyrazino[2,3-b][1,4]oxazin-6-yl)-1-oxa-3,8-diazaspiro[4.5]decan-8-yl]methyl]-2,3-dihydro-1H-indene-4-carbonitrile]	< 0.0977	
NC1c2cccc(Cl)c2CC1CN1CC(C2CN(c3cnc4c(n3)NC(=O)CO4)C(=O)O2)C1 (racemic) [Example 205, 6-[5-[1-[(rac-1,2-trans-1-amino-4-chloro-2,3-dihydro-1H-inden-2-yl)methyl]azetidin-3-yl]-2-oxo-1,3-oxazolidin-3-yl]-4H-pyrazino[2,3-b][1,4]oxazin-3-one]	0.123	

Further lines, results first:

IC50 [1] [µM]	IC50 [µM]	SMILES
≤ 0.0977		COc1ncc(F)c2c1CC(CNCCC1CN(c3ccc4c(n3)NC(=O)CO4)C(=O)O1)C2 (stereo not drawn) [Example 70, 6-[5-[2-[(4-fluoro-1-methoxy-6,7-dihydro-5H-cyclopenta[c]pyridin-6-yl)methylamino]ethyl]-2-oxo-oxazolidin-3-yl]-4H-pyrido[3,2-b][1,4]oxazin-3-one]
0.168		Cc1nccc2c1CC(CNCCC1CN(c3ccc4c(n3)NC(=O)CO4)C(=O)O1)C2 (stereo not drawn) [Example 88, 6-[5-[2-[(1-methyl-6,7-dihydro-5H-cyclopenta[c]pyridin-6-yl)methylamino]ethyl]-2-oxo-1,3-oxazolidin-3-yl]-4H-pyrido[3,2-b][1,4]oxazin-3-one]
0.185		N#Cc1cccc2c1CC(CN[C@H]1C[C@H](C3CN(c4ccc5c(n4)NC(=O)CO5)C(=O)O3)C1)C2 (stereo partly drawn) [Example 97, 2-[[[trans-3-[2-oxo-3-(3-oxo-4H-pyrido[3,2-b][1,4]oxazin-6-yl)-1,3-oxazolidin-5-yl]cyclobutyl]amino]methyl]-2,3-dihydro-1H-indene-4-carbonitrile]
0.186		N#Cc1c(OCC2CCCN2)ccc2c1CC(CNCCC1CN(c3ccc4c(n3)NC(=O)CO4)C(=O)O1)C2 (stereo not drawn) [Example 141, 2-[[2-[2-oxo-3-(3-oxo-4H-pyrido[3,2-b][1,4]oxazin-6-yl)-1,3-oxazolidin-5-yl]ethylamino]methyl]-5-(pyrrolidin-2-ylmethoxy)-2,3-dihydro-1H-indene-4-carbonitrile; formic acid]
	0.152	N#Cc1cccc2c1CC(NCC(O)CC1CN(c3cnc4c(n3)NC(=O)CO4)C(=O)O1)C2 (single isomer, unassigned; isomer b) [Example 82, 2-[[2-hydroxy-3-[2-oxo-3-(3-oxo-4H-pyrazino[2,3-b][1,4]oxazin-6-yl)-1,3-oxazolidin-5-yl]propyl]amino]-2,3-dihydro-1H-indene-4-carbonitrile, Isomer B; formic acid]
0.221		Cc1ncc(F)c2c1CC(CN1CCC3(CC1)CN(c1cnc4c(n1)NC(=O)CO4)C(=O)O3)C2 (stereo not drawn) [Example 258, 6-[8-[(4-Fluoro-1-methyl-6,7-dihydro-5H-cyclopenta[c]pyridin-6-yl)methyl]-2-oxo-1-oxa-3,8-diazaspiro[4.5]decan-3-yl]-4H-pyrazino[2,3-b][1,4]oxazin-3-one]
< 0.0977		N#Cc1ncc(F)c2c1CC(CNCCC1CN(c3ccc4c(n3)NC(=O)CO4)C(=O)O1)C2 (stereo not drawn) [Example 37, 4-fluoro-6-[[2-[2-oxo-3-(3-oxo-4H-pyrido[3,2-b][1,4]oxazin-6-yl)-1,3-oxazolidin-5-yl]ethylamino]methyl]-6,7-dihydro-5H-cyclopenta[c]pyridine-1-carbonitrile; formic acid]
	< 0.0977	NC(=O)COc1cc(F)c2c(c1)CC(CNCC[C@H]1CN(c3cnc4c(n3)NC(=O)CO4)C(=O)O1)C2 (single isomer, unassigned; isomer b) [Example 380]
0.44		O=C1COc2ccc(N3CC(NCCNC4Cc5cccc(F)c5C4)CC3=O)nc2N1 (stereo not drawn) [Example 120, 6-[4-[2-[(4-fluoro-2,3-dihydro-1H-inden-2-yl)amino]ethylamino]-2-oxopyrrolidin-1-yl]-4H-pyrido[3,2-b][1,4]oxazin-3-one; formic acid]
< 0.0977		CC(N)COc1cc(C#N)c2c(c1)CC(CNCCC1CN(c3cnc4c(n3)NC(=O)CO4)C(=O)O1)C2 (stereo not drawn) [Example 193, 6-(2-aminopropoxy)-2-(((2-(2-oxo-3-(3-oxo-3,4-dihydro-2H-pyrazine[2,3-b][1,4]oxazin-6-yl)oxazolidin-5-yl)ethyl)amino)methyl)-2,3-dihydro-1H-indene-4-carbonitrile; 2,2,2-trifluoroacetic acid]
0.221		Cc1nc(OCc2cc[nH]n2)c(F)c2c1CC(CNCCC1CN(c3cnc4c(n3)NC(=O)CO4)C(=O)O1)C2 (stereo not drawn) [Example 415]
< 0.0977		NC1c2c(Cl)cccc2CC1CNCCC1CN(c2cnc3c(n2)NC(=O)CO3)C(=O)O1 (racemic) [Example 169, 6-[2-oxo-5-[2-[[rac-1,2-trans-1-amino-7-chloro-2,3-dihydro-1H-inden-2-yl]methylamino]ethyl]-1,3-oxazolidin-3-yl]-4H-pyrazino[2,3-b][1,4]oxazin-3-one]

From patent publication US20230167127A1, “COMPOUNDS AND THEIR USE IN THE TREATMENT OF BACTERIAL INFECTION” (Hoffmann-La Roche Inc., priority 2020, published 2023)
